Data reported in ChEMBL document CHEMBL1125177, “Pseudopeptide analogues of substance P and leucine enkephalinamide containing the psi (CH2O) modification: synthesis and biological activity” (J Med Chem, 1991).
One block for each molecule: values may come before it. Active and inactive are the calls of the source. No cut-off for these calls is given here. Starred links: 1 amine or outer side, 2 acyl side, 3 side chain; linkers in the order of their positions; H or OH if unused. Non-standard residues stand in square brackets, D forms with d. Residues, ends and D or L forms follow the SMILES beside them. X3 = O=C(CCC(=O)[*:2])[C@H](Cc1ccccc1)N[*:1]; X4 = O=C(C/C=C/[C@H](Cc1ccccc1)N[*:1])[*:2]; X1 = O=C(COC[C@H](Cc1ccccc1)N[*:1])[*:2]; NMeF = CN[C@@H](Cc1ccccc1)C(=O)O; pGlu = O=C1CC[C@@H](C(=O)O)N1; AEA = NCCOCC(=O)O; Ava = NCCCCC(=O)O; Sar = CNCC(=O)O

Experiments:
Cavia porcellus [1] = species: Cavia porcellus; assay: Relative potency to that of [D-Ala2,Leu5]enkephalinamide in guinea pig ileum; assay type: functional
Cavia porcellus [2] = species: Cavia porcellus; assay: Effective concentration was determined using guinea pig ileum; assay type: functional
Cavia porcellus [3] = species: Cavia porcellus; assay: Relative potency to that of [pGlu6]SP6-11 in guinea pig ileum; assay type: functional
Cavia porcellus [4] = species: Cavia porcellus; assay: Effective dose was measured on guinea pig ileum for maximal contraction; assay type: functional
Cavia porcellus [5] = species: Cavia porcellus; assay: Relative potency as ratio of the EC50 value of analogue to that of [PGlu6]SP6-11 in achykinin receptor 3 in guinea pig ileum; assay type: functional
Neuromedin-K receptor [6] = biological target: T1, Neuromedin-K receptor (Cavia porcellus, UniProt P30098); assay: Effective dose was measured on NK3 receptors of guinea pig ileum for maximal contraction in the presence of 10e-7 M substance P methyl ester.; assay type: functional, tissue-based
T1 sequence (P30098 whole entry): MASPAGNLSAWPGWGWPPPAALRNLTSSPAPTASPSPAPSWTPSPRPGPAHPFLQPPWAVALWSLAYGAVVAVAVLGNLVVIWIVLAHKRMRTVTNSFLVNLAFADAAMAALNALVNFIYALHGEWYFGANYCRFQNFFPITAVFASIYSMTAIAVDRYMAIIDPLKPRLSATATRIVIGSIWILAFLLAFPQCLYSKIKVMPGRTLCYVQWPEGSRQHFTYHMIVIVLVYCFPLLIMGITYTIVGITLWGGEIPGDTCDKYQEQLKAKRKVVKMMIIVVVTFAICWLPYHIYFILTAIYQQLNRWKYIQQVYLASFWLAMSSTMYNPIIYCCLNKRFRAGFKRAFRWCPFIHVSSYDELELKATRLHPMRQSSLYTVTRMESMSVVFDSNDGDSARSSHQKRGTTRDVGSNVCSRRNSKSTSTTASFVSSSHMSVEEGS

Substance-P receptor = Substance-P receptor (Cavia porcellus, UniProt P30547); assay: Effective dose was measured on NK1 receptors of guinea pig ileum for maximal contraction in the presence of 3*10e-7 M atropine; assay type: functional, tissue-based
Sequence of Substance-P receptor (P30547 whole entry): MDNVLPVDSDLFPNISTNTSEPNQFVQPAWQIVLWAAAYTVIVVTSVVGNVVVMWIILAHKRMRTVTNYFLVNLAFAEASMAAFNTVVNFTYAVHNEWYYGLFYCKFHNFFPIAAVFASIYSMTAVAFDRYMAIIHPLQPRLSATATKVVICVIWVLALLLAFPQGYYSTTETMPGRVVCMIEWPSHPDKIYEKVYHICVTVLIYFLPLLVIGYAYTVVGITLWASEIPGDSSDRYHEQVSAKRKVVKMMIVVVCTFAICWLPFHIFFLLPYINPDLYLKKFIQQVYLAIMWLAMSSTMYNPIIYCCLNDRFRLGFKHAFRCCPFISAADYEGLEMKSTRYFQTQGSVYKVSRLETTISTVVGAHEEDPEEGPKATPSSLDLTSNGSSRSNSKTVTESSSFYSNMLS

Rattus norvegicus = species: Rattus norvegicus; assay: Inhibitory effect was measured on electrically stimulated rat vas deferens contraction; assay type: functional
[7] = Ratio of NK-1 receptor to that of NK-3 receptor; assay type: functional
Cavia porcellus [8] = species: Cavia porcellus; assay: Relative potency to that of [DAla2,Leu5]enkaphalinamide.; assay type: functional
Cavia porcellus [9] = species: Cavia porcellus; assay: Inhibitory effect was measured on guinea pig ileum for maximal contraction; assay type: functional
Mus musculus [10] = species: Mus musculus; assay: Inhibitory effect was measured on mouse vas deferens; assay type: functional
Mus musculus [11] = species: Mus musculus; assay: Relative potency to that of [D-Ala2, Leu5]-enkaphalinamide in mouse vas deferens; assay type: functional
[12] = Ratio of IC50 measured in MVD to that of GPI.; assay type: functional
[13] = biological target: Delta-type opioid receptor (Rattus norvegicus, UniProt P33533); assay: Binding affinity to opioid receptor delta was determined in rat brain using [3H]DSTBULET as radioligand; assay type: tissue-based
Sequence of Delta-type opioid receptor (P33533 whole entry): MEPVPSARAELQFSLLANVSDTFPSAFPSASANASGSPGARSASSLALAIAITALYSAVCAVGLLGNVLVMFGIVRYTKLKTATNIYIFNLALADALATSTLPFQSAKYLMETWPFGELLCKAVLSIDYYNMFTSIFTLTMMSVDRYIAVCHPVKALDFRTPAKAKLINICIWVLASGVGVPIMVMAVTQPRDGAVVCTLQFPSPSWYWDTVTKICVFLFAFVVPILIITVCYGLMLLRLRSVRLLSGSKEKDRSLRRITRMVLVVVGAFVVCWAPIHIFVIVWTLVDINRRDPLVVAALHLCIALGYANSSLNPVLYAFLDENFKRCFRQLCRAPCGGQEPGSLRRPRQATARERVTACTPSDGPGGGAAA

[14] = biological target: Delta-type opioid receptor (Rattus norvegicus) (UniProt P33533); assay: It is the ratio of Ki value for delta receptor to that of opioid receptor mu
Sequence of Delta-type opioid receptor (Rattus norvegicus) (P33533 whole entry): as above

Mu-type opioid receptor = Mu-type opioid receptor (Rattus norvegicus, UniProt P33535); assay: Binding affinity to opioid receptor mu was determined in rat brain using [3H]DAGO as radioligand; assay type: tissue-based
Sequence of Mu-type opioid receptor (P33535 whole entry): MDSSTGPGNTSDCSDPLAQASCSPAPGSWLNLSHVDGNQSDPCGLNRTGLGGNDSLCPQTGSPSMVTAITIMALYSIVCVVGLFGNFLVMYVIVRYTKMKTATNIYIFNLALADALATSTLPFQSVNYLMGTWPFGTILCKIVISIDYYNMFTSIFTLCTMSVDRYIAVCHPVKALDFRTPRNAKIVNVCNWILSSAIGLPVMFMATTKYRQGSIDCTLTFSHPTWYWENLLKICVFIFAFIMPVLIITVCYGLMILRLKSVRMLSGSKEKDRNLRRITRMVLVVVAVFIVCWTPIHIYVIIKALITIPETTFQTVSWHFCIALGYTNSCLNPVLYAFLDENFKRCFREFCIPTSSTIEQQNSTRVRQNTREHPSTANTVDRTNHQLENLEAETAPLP

[15] = biological target: T2, Neuromedin-K receptor (Cavia porcellus) (UniProt P30098); assay: Relative potency as ratio of the EC50 value of analogue to that of [PGlu6]SP6-11 in tachykinin receptor 3 in guinea pig ileum; assay type: functional, tissue-based
T2 sequence (whole entry): T1 sequence (P30098 whole entry)

Neuromedin-K receptor [16] = biological target: T1, Neuromedin-K receptor; assay: Effective dose was measured on NK3 receptors of guinea pig ileum for maximal contraction in the presence of 10e-7 M substance P methyl ester; assay type: functional, tissue-based
Mus musculus [17] = species: Mus musculus; assay: Inhibitory effect was measured on mouse vas deferens; c = Did not show agonist activity up to 10E-5 M; assay type: functional
Mus musculus [18] = species: Mus musculus; assay: Relative potency to that of [D-Ala2, Leu5]-enkaphalinamide in mouse vas deferens; c = Did not show agonist activity up to 10E-5 M; assay type: functional
[19] = Ratio of IC50 measured in MVD to that of GPI; c= Did not show agonist activity up to 10E-5 M.; assay type: functional

Structure (SMILES): CSCC[C@H](NC(=O)[C@H](Cc1ccccc1)NC(=O)CNC(=O)CCC[C@H](N)Cc1ccc(O)cc1)C(N)=O
- Relative potency (Cavia porcellus [1]): 3%

- EC50 (Cavia porcellus [2]): 0.002 µM
Structure (SMILES): CSCC[C@H](NC(=O)[C@H](CC(C)C)NC(=O)CC(=O)N[C@H](Cc1ccccc1)NC(=O)[C@H](Cc1ccccc1)NC(=O)[C@@H]1CCC(=O)N1)C(N)=O
- Relative potency (Cavia porcellus [3]): 22%

Structure (SMILES): CSCC[C@H](NC(=O)[C@H](Cc1ccccc1)NC(=O)CCCCNC(=O)[C@@H](N)Cc1ccc(O)cc1)C(N)=O (H-Y[Ava]FM-NH2)
- Relative potency (Cavia porcellus [1]): <0.3%

Structure (SMILES): CSCC[C@H](NC(=O)[C@H](Cc1ccccc1)NC(=O)CNCCNC(=O)[C@@H](N)Cc1ccc(O)cc1)C(N)=O
- Relative potency (Cavia porcellus [1]): 0.3%

- EC50 (Cavia porcellus [2]): 0.002 µM
Structure (SMILES): CSCC[C@H](NC(=O)[C@H](CC(C)C)NC(=O)CCC(=O)[C@H](Cc1ccccc1)NC(=O)[C@H](Cc1ccccc1)NC(=O)[C@@H]1CCC(=O)N1)C(N)=O ([pGlu]F[X3]LM-NH2)
- Relative potency (Cavia porcellus [3]): 70%

Structure (SMILES): CSCC[C@H](NC(=O)[C@H](Cc1ccccc1)NC(=O)CN(C)C(=O)CNC(=O)[C@@H](N)Cc1ccc(O)cc1)C(=O)O
- Relative potency (Cavia porcellus [1]): 0.1%

- EC50 (Cavia porcellus [4]): 0.0004 µM
- EC50 (Neuromedin-K receptor [6]): 0.0009 µM
- EC50 (Substance-P receptor): 0.6 µM
- EC50 (Rattus norvegicus): 20 µM
- Ratio [7]: 670
Structure (SMILES): CSCC[C@H](NC(=O)[C@H](CC(C)C)NC(=O)CNC(=O)[C@H](Cc1ccccc1)N(C)C(=O)[C@H](Cc1ccccc1)NC(=O)[C@@H]1CCC(=O)N1)C(N)=O ([pGlu]F[NMeF]GLM-NH2)
- Relative potency (Cavia porcellus [5]): 555%

- IC50 (Cavia porcellus [9]): 0.032 µM
- IC50 (Mus musculus [10]): 0.0118 µM
Structure (SMILES): CC(C)C[C@H](NC(=O)[C@H](Cc1ccccc1)NC(=O)COC[C@@H](C)NC(=O)[C@@H](N)Cc1ccc(O)cc1)C(N)=O
- Relative potency (Cavia porcellus [8]): 1%
- Relative potency (Mus musculus [11]): 1%
- Ratio [12]: 0.37

Structure (SMILES): COC(=O)[C@H](CC(C)C)NC(=O)[C@H](Cc1ccccc1)NC(=O)CNC(=O)C/C=C/[C@@H](N)Cc1ccc(O)cc1
- Relative potency (Cavia porcellus [1]): 300%

Structure (SMILES): N[C@@H](Cc1ccc(O)cc1)C(=O)NC/C=C/CC(=O)N[C@@H](Cc1ccccc1)C(=O)N1CCC[C@H]1C(=O)O
- Relative potency (Cavia porcellus [1]): 0.1%

Structure (SMILES): CC(C)C[C@H](NC(=O)[C@H](Cc1ccccc1)NC(=O)CNC(=O)CSC[C@@H](N)Cc1ccc(O)cc1)C(=O)O
- Relative potency (Cavia porcellus [1]): 24.1%

Structure (SMILES): CSCC[C@H](NC(=O)[C@H](Cc1ccccc1)NC(=O)CNC(=O)[C@@H](C)NC(=O)[C@@H](N)Cc1ccc(O)cc1)C(N)=O
- Relative potency (Cavia porcellus [1]): 1.1%
- IC50 (Cavia porcellus [9]): 0.029 µM
- IC50 (Mus musculus [10]): 0.0042 µM
- Relative potency (Mus musculus [11]): 2.8%
- Ratio [12]: 0.14

Structure (SMILES): CC(C)C[C@H](NC(=O)[C@H](Cc1ccccc1)NC(=O)CNC(=O)COC[C@@H](N)Cc1ccc(O)cc1)C(N)=O
- Relative potency (Cavia porcellus [1]): 106%
- Relative potency (Cavia porcellus [8]): 1.06%
- IC50 (Cavia porcellus [9]): 0.03 µM
- IC50 (Mus musculus [10]): 0.092 µM
- Relative potency (Mus musculus [11]): 0.13%
- Ki [13]: 0.00778 µM
- Ratio [14]: 2.12
- Ki (Mu-type opioid receptor): 0.00369 µM
- Ratio [12]: 3.12

- EC50 (Cavia porcellus [4]): 0.0012 µM
- Relative potency [15]: 100%
- EC50 (Neuromedin-K receptor [16]): 0.005 µM
- EC50 (Substance-P receptor): 0.0022 µM
- EC50 (Rattus norvegicus): 20 µM
- Ratio [7]: 0.44
Structure (SMILES): CSCC[C@H](NC(=O)[C@H](CC(C)C)NC(=O)CNC(=O)[C@H](Cc1ccccc1)NC(=O)[C@H](Cc1ccccc1)NC(=O)[C@@H]1CCC(=O)N1)C(N)=O ([pGlu]FFGLM-NH2)

Structure (SMILES): CC(C)C[C@H](NC(=O)[C@H](Cc1ccccc1)NC(=O)CSCCNC(=O)[C@@H](N)Cc1ccc(O)cc1)C(=O)O
- Relative potency (Cavia porcellus [1]): <1%

Structure (SMILES): CC(C)C[C@H](NC(=O)[C@H](Cc1ccccc1)NC(=O)C/N=C(\S)CNC(=O)[C@@H](N)Cc1ccc(O)cc1)C(=O)O
- Relative potency (Cavia porcellus [1]): 400%

Structure (SMILES): CSCC[C@H](NC(=O)[C@H](Cc1ccccc1)NC(=O)CNC(=O)CN(C)C(=O)[C@@H](N)Cc1ccc(O)cc1)C(=O)O
- Relative potency (Cavia porcellus [1]): <2.1%

- IC50 (Cavia porcellus [9]): 0.35 µM
- IC50 (Mus musculus [10]): 0.00054 µM
Structure (SMILES): CC(C)CC(NC(=O)[C@H](Cc1ccccc1)NC(=O)COC[C@@H](CO)NC(=O)C(N)Cc1ccc(O)cc1)C(=O)N[C@H](C(=O)O)[C@@H](C)O (stereo not given in full)
- Relative potency (Cavia porcellus [8]): 0.09%
- Relative potency (Mus musculus [11]): 21.8%
- Ratio [12]: 0.0015

Structure (SMILES): CC(C)C[C@H](NC(=O)[C@H](Cc1ccccc1)NC(=O)COCCNC(=O)[C@@H](N)Cc1ccc(O)cc1)C(N)=O (H-Y[AEA]FL-NH2)
- Relative potency (Cavia porcellus [1]): 1.4%
- Relative potency (Cavia porcellus [8]): 0.014%
- IC50 (Cavia porcellus [9]): 2.3 µM
- IC50 (Mus musculus [17]): Not Active
- Relative potency (Mus musculus [18]): inactive
- Ki [13]: 9.2 µM
- Ratio [14]: 6.66
- Ki (Mu-type opioid receptor): 1.38 µM
- Ratio [19]: inactive

- EC50 (Cavia porcellus [2]): 0.002 µM
Structure (SMILES): CSCC[C@H](NC(=O)[C@H](CC(C)C)NC(=O)CN(C)C(=O)[C@H](Cc1ccccc1)NC(=O)[C@H](Cc1ccccc1)NC(=O)[C@@H]1CCC(=O)N1)C(N)=O ([pGlu]FF[Sar]LM-NH2)
- Relative potency (Cavia porcellus [3]): 80%

Structure (SMILES): CSCC[C@H](NC(=O)[C@H](Cc1ccccc1)NC(=O)CNC(=O)CNC[C@@H](N)Cc1ccc(O)cc1)C(N)=O
- Relative potency (Cavia porcellus [1]): 56%

Structure (SMILES): C[C@@H](NC(=O)[C@@H](N)Cc1ccc(O)cc1)C(=O)NCC(=O)N(C)[C@@H](Cc1ccccc1)C(=O)NCCO [DAMGO]
- IC50 (Cavia porcellus [9]): 0.018 µM
- IC50 (Mus musculus [10]): 0.0515 µM
- Ki [13]: 0.629 µM

- EC50 (Cavia porcellus [2]): 0.002 µM
- EC50 (Cavia porcellus [4]): 0.0048 µM
- Relative potency [15]: 40%
- EC50 (Neuromedin-K receptor [6]): 0.0125 µM
- EC50 (Substance-P receptor): 0.0396 µM
- EC50 (Rattus norvegicus): 2 µM
- Ratio [7]: 3.16
Structure (SMILES): CSCC[C@H](NC(=O)[C@H](CC(C)C)NC(=O)COC[C@H](Cc1ccccc1)NC(=O)[C@H](Cc1ccccc1)NC(=O)[C@@H]1CCC(=O)N1)C(N)=O ([pGlu]F[X1]LM-NH2)
- Relative potency (Cavia porcellus [3]): 25%

- EC50 (Cavia porcellus [2]): 0.002 µM
Structure (SMILES): CSCC[C@H](NC(=O)[C@H](CC(C)C)NC(=O)C/C=C/[C@H](Cc1ccccc1)NC(=O)[C@H](Cc1ccccc1)NC(=O)[C@@H]1CCC(=O)N1)C(N)=O ([pGlu]F[X4]LM-NH2)
- Relative potency (Cavia porcellus [3]): 24%
